# From US20240173435A1, “GENE DELIVERY FOR PREVENTION AND TREATMENT OF BALDNESS” (NEW JERSEY INSTITUTE OF TECHNOLOGY, priority 2022, published 2024)
# Legend:
# [1] = Ionizable cationic lipid library screening, in vitro delivery of luciferase mRNA (mLuc); assay type: cell-based; settings: 18*8 library, lipid:DOPE:cholesterol:DMG-PEG 50:10:38.5:1.5
# From the text: An ionizable cationic lipid is generally composed of three parts: (1) hydrophilic headgroups containing one or multiple ionizable amines for condensing negatively charged mRNA; (2) hydrophobic hydrocarbon chains capable of promoting self-assembly and phospholipid membrane fusion; (3) degradable ester linkers connecting the headgroups with hydrocarbon chains to potentially lower systemic cytotoxicity (FIG. 8b). A new library of ionizable cationic lipids is designed, where the ionizable amine headgroups originated from different amino alcohols and the hydrocarbon lipid chains were derived from commercially available lipid acids. Through CALB enzyme-assisted reaction, the hydroxyl groups were reacted with carboxylic acids via one-step high-efficiency esterification (FIG. 8a) and an 18*8 library of lipid-like materials was synthesized by varying amino alcohols and lipid acids (ACS Nano, 16 (11) 18936-18950). Preliminarily, these lipid-like materials with DOPE, cholesterol, and DMG-PEG were fabricated at a molar ratio of 50:10:38.5:1.5, which was the most widely used formulation to form LNPs and delivered luciferase encoded mRNA (mLuc) in vitro to generate a luciferase expression heat map of lipid-like materials.
# Androgen Receptor gene = experiment: Knockout percentage by Sanger sequencing and ICE analysis of GFP-positive sorted cells; assay type: cell-based, human; settings: GFP-positive sorted HEK 293T cells, ICE analysis, n=5
# Procedure: Cas9 mRNA was purchased from Tri-Link Biotechnologies. Guide RNAs, which target the 1st coding exon in both human and mouse AR genes, were designed so that any frameshift mutation would result in early termination of translation. All gRNAs were obtained from Synthego with “end-modified” synthesis where the first and last three bases of these gRNA were synthesized using 2′-O-Methyl-nucleosides and joined via 3′ phosphorothioate bonds.
# The in vitro transfection efficacy was evaluated in the HEK 293 cell line by delivering plasmid PX458 integrated with GFP, Cas9 and gRNA sequence, utilizing nanoparticles. Briefly, 1×10^5 HEK 293 cells were seeded into each well of 24-well plate with 0.5 mL complete culture medium and incubated at 37° C. overnight to allow cell attachment. Then the LNPs were seeded at 24 h. The transfected GFP positive cells were observed under All-in-One Fluorescence Microscope (BZ-X710, Keyence, Japan) at predetermined time points with brightfield, fluorescent and merged channels using 10×PanFluor lens (Nikon, Japan). […] The cell pellets were resuspended in 0.5 mL PBS for flow cytometric analysis using a BD LSR II flow cytometer (BD Biosciences, San Jose, CA) and the data were analyzed using FACSDiva software (BD Biosciences, San Jose, CA). […]
Molecule,luciferase expression rank in lipid library screen [1],knockout (percentage of transfected cells showing insertion or deletion) (Androgen Receptor gene)
CCCCC/C=C/C/C=C/CCCCCCCC(=O)OCCN1CCN(CCOC(=O)CCCCCCC/C=C/C/C=C/CCCCC)CC1 [AA3-DLin],top-performing,
"GAGCGTGCGCGAAGCGATCC (guide GAGCGUGCGCGAAGCGAUCC; listed as RNA, chemistry not fully specified) [sgRNA2, PAM AGG, strand +]",,~51%
"TGATCCAGAACCCGGGCCCC (guide UGAUCCAGAACCCGGGCCCC; listed as RNA, chemistry not fully specified) [sgRNA1, PAM AGG, strand +]",,~76%
